How the values were obtained:
[1] = tested on: triple negative breast cancer; conditions: cited from earlier work
[2] = tested on: stage four pancreatic cancer; assay: Case study 3: laboratory tests (VEGF, IL-8, TGF, CA 19.9); type: in vivo, human; conditions: two months without epigenetic therapies, Lynparza continued; increased from 8565
Source text: (§1) This is a case study of a person with history of stage four pancreatic cancer who was diagnosed after abdominal pain, with adenocarcinoma of pancreas metastasized to their liver. They had explored all potential therapies and their oncologist had given them less than 3 months to live and had referred them to hospice.
They were immediately started on daily IV epigenetic therapies in combination with PARP inhibitors, which they received for two weeks after which their laboratory tests were repeated.
(§2) After two weeks of epigenetic therapies, his VEGF decreased from 248 to 70.
(§3) Thus, Lynparza alone was not sufficient to retard tumor growth. Upon their return to the clinic, their tumor marker CA 19.9 was analyzed.

[3] = tested on: cfDNA somatic alterations; assay: Case study 3: Guardant360 % cfDNA with somatic alterations; type: in vivo, human; conditions: Lynparza alone
Source text: Therefore, clinical correlation is advised.
as §2
For example, KRAS mutant allele frequency (MAF) decreased from over 50 percent to 5.6, TP53 decreased from over 50 percent down to 5.1 percent (FIG. 19).

[4] = tested on: adenocarcinoma of pancreas metastasized to liver; assay: Case study 3: clinical course; type: in vivo, human; conditions: epigenetic therapies stopped, Lynparza continued
Source text: as §1
They were able to walk again independently. They started to do clinically well. […] Edema in their lower extremities improved.
as §3

[5] = tested on: serous ovarian carcinoma lesions; assay: Case study 2: whole body PET scan and abdominal CT scan restaging; conditions: Niraparib 300 mg daily only
[6] = cited from earlier work
glioma cells = conditions: cited from earlier work
[7] = abdominal CT about one month after stopping epigenetic therapies, from 16 mm

## NC(=O)c1ccc(I)c([N+](=O)[O-])c1 [Iniparib]
[1]; in vivo
  phase II trial outcome: promising results
[1]; patients also received cytotoxic chemotherapy
  survival in phase III trial: no improvement in survival

## O=C(c1cc(Cc2n[nH]c(=O)c3ccccc23)ccc1F)N1CCN(C(=O)C2CC2)CC1 [Lynparza]
[2]
  tumor marker CA 19.9: 45988
[3]
  cfDNA gene alterations (FGF2, C Myc, EGFR, PI3K, CDK4, CDK6, NF-1, KIT, TP53, PDGF, KRAS, BRCA1): did not change
[4]
  disease course: their disease progressed

## NC(=O)c1cccc2cn(-c3ccc([C@@H]4CCCNC4)cc3)nc12 [Niraparib]
[5]; [7]
  abdominal mesenteric artery LN size: 28 mm
  retroperitoneal node size: 21 mm
[5]; abdominal CT about one month after stopping epigenetic therapies, from 24 mm
  periaortic nodes size: 32 mm
[5]; about one month after stopping epigenetic therapies
  overall response on abdominal CT scan: mixed response with progression

## O=c1c(O)c(-c2ccc(O)c(O)c2)oc2cc(O)cc(O)c12 [quercetin]
[6]
  water solubility: not water soluble
Glioma cells
  effect on angiogenesis: suppression of angiogenesis

— US11369585B2, “Compositions, methods, systems and/or kits for preventing and/or treating neoplasms” (Research Cancer Institute of America, priority 2017, dated 2022)
